# Laboratory results as given in US10111847B2, “Compounds and methods for modulating vascular injury” (The Regents of the University of California, priority 2012, dated 2018).
# Tests used:
# [1] = tested on: p65 subunit; assay: Nuclear translocation of p65 subunit in sv-VSMCs (immunofluorescence); format: cell-based, human; details: 100 nm, 30 min; TNFα 10 ng/ml 2 hrs
# Experimental: Immunofluorescence for p65 (RelA): 15000 VSMCs or 30000 ECs were seeded on a 8-well chamber slide. Cells received 30 min of Maresin-1 pretreatment, followed by TNF-α for 2 hr. Cells were fixed in 2% paraformaldehyde, followed by permeabilization with ice-cold acetone (10 min) and 1% Triton X-100 (20 min). Cells were incubated overnight in a humidified chamber with anti-p65 antibody (Santa Cruz Biotechnology Inc.) followed by Alexa-fluor 488 tagged secondary antibody (Life Technologies) and were visualized under a fluorescent microscope.
# FIGS. 16A-16D. VSMCs were grown in chamber slides and treated with vehicle or 100 nm of 7S or 7R-Maresin-1 with/without 10 ng/ml pertussis toxin for 30 min, followed by TNFα (10 ng/ml) for 2 hrs. Cells were fixed and subsequently stained with anti-p65 (Santa Cruz Biotechnology) and secondary antibodies (Alexa-488). (A-D) Representative images of Ctrl (A), TNFα (B), 7R-Maresin-1+TNFα (C) and 7R-Maresin-1+pertussis toxin (10 ng/ml)+TNFα. (E) Mean fluorescence of nucleus and cytoplasm were quantified from all groups and the net result of the ratio of nucleus over cytoplasmic mean fluorescence is depicted in the bar graph, as a measure of relative p65 nuclear translocation. (N>=3). […]
# [2] = tested on: TNF-α-stimulated EC; assay: U937 monocyte adhesion to TNF-α-stimulated EC (Maresin-1); format: cell-based, human; details: 1-100 nM, 30 min pretreatment; TNFα 1 ng/ml 4 hr
# Experimental: MaR-1. VSMCs and ECs were seeded on a 96 well plate (20000 cells/well for VSMCs and 50000 cells/well for ECs) and after 2 days, were treated with Maresin-1 (1-100 nM) for 30 min followed by TNF-α for 4 hr and then calcein AM-labeled U937 cells were added on top of the VSMCs. After 15-minute incubation at 37 C, unbound cells were washed off with cold PBS. Fluorescence measurements (ex 494 nm, em 517 nm) of bound monocytes were taken with a plate reader. For capturing images, the assay was performed in 8-well chamber slides (Nunc Labtek) and images were taken after cold PBS wash (three times) following U937 incubation.
# FIGS. 15A-15D. Representative images of Calcein-AM labeled U937 monocytes adhered to human sv-VSMCs pretreated with vehicle (A, B) or 7S-Maresin-1 (C) or 7S-Maresin-1 and pertussis toxin (D) for 30 min, followed by TNFα at 10 ng/ml for 4 hr (B, C, D). (E) Quantitative analysis of U937 adhesion assay in human sv-VSMCs and (F) human sv-ECs (1 ng/ml TNFα used for EC cells). […] Bar graph represents net quantitative densitometry analysis. […] Expression of MCP-1 was measured by qRT-PCR, and normalized to unstimulated cells (n=3, results are mean±SEM, P<0.05 for Mar-1 (10 and 100 nM) vs TNF alone, unpaired t-test).
# [3] = tested on: human sv-VSMCs; assay: PDGF-BB induced transwell migration of sv-VSMCs (Maresin-1); format: cell-based; details: 1-100 nM; PDGF-BB 50 ng/ml; 15 hr
# Experimental: MaR-1. VSMCs were serum starved for 1-2 days, then trypsinized and seeded in 8-μm-pore transwell inserts (Corning Glass Works, Corning, N.Y.) at a concentration of 30,000 cells per well. Cells were allowed to attach for 2 hr, then pretreated with Maresin-1 (1-100 nM) or vehicle (0.1% ethanol) control for 30 min before the addition of PDGF-BB (50 ng/ml; Sigma-Aldrich, St. Louis, Mo., USA) to the lower wells. 7S-Maresin-1 was added to both upper and lower wells for the full duration of chemotaxis experiment (15 hr). The membranes were fixed with methanol and cut out, mounted with DAPI, and migrated cells were counted under fluorescence microscope. Ten images per well were taken randomly under a 10× magnification and number of cells were counted in all the images to calculate mean for a given well.
# VSMCs were pre-treated with vehicle or 7S-Maresin-1 for 30 min in a transwell insert before adding […] (50 ng/ml) to the outer chamber. Migrated VSMCs were fixed with methanol, stained with DAPI and counted under a fluorescent microscope.
# FIGS. 20A-20D. Representative image of nine independent experiments. (A) Vehicle Control. (B) PDGF-BB, 50 ng/ml. (C) 7S-Maresin-1, 1 nm+PDGF-BB, 50 ng/ml. (D) 7S-Maresin-1, 100 nm+PDGF-BB, 50 ng/ml. (E) Graphical summary of nine independent experiments. P≤0.01, One-way ANOVA with Dunnett's post hoc test. *P<0.05 compared to […] (50 ng/ml). […]
structure (smiles),measurement,setting,value
"CC/C=C\C/C=C\C[C@H](O)\C=C/C=C/C=C/[C@@H](O)C/C=C\CCC(=O)O [7S-Maresin-1, 7S,14R-dihydroxydocosa-4Z,8E,10Z,12Z,16Z,19Z-hexaenoic acid]",nuclear translocation of p65 subunit in human sv-VSMCs,[1],Inhibit
same,monocyte adhesion (U937) to TNF-α-stimulated EC,[2],dose-dependent inhibition
same,PDGF-BB induced migration in human sv-VSMCs,[3],Dose-Dependently Attenuates
